Test results: the supplement of paper PMC10307832

Columns and labels:
Experiment in all cases: relative viability (nuclei count vs DMSO), 5 days (fraction); higher = more cells survive
AZD5582 + Alpelisib = compound: C[C@@H](C(=O)N[C@@H](C1CCCCC1)C(=O)N2CCC[C@H]2C(=O)N[C@@H]3[C@@H](CC4=CC=CC=C34)OCC#CC#CCO[C@@H]5CC6=CC=CC=C6[C@@H]5NC(=O)[C@@H]7CCCN7C(=O)[C@H](C8CCCCC8)NC(=O)[C@H](C)NC)NC [AZD5582] + Cc1nc(NC(=O)N2CCC[C@H]2C(N)=O)sc1-c1ccnc(C(C)(C)C(F)(F)F)c1 [Alpelisib] (partner 2 µM)
How it was run: (§1)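 Medians of duplicate plates are given as relative viability. That measure is the nuclei count in treated wells divided by the count in vehicle wells. Counts were taken on 4× images of lung cancer cell lines in 1536-well plates, 5 days after pin-tool dosing the day after seeding with one drug alone or a fixed anchor-drug dose plus five library-drug doses (not always all listed) in √10 steps.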

AZD5582 + Dasatinib = compound: C[C@@H](C(=O)N[C@@H](C1CCCCC1)C(=O)N2CCC[C@H]2C(=O)N[C@@H]3[C@@H](CC4=CC=CC=C34)OCC#CC#CCO[C@@H]5CC6=CC=CC=C6[C@@H]5NC(=O)[C@@H]7CCCN7C(=O)[C@H](C8CCCCC8)NC(=O)[C@H](C)NC)NC [AZD5582] + Cc1nc(Nc2ncc(C(=O)Nc3c(C)cccc3Cl)s2)cc(N2CCN(CCO)CC2)n1 [Dasatinib] (partner 0.075 µM)
How it was run: as §1

Temozolomide + Foretinib = compound: Cn1nnc2c(C(N)=O)ncn2c1=O [Temozolomide] + COc1cc2c(Oc3ccc(NC(=O)C4(C(=O)Nc5ccc(F)cc5)CC4)cc3F)ccnc2cc1OCCCN1CCOCC1 [Foretinib] (partner 0.25 µM)
How it was run: as §1

[1] = compound: Cn1nnc2c(C(N)=O)ncn2c1=O [Temozolomide] + C[C@@H](Oc1cc(-c2cnn(C3CCNCC3)c2)cnc1N)c1c(Cl)ccc(F)c1Cl [Crizotinib] (partner 1 µM)
How it was run: as §1

Cell Line	relative viability (AZD5582 + Alpelisib; first compound 0.001581 µM)	relative viability (AZD5582 + Alpelisib; first compound 0.005 µM)	relative viability (AZD5582 + Alpelisib; first compound 0.01581 µM)	relative viability (AZD5582 + Alpelisib; first compound 0.05 µM)	relative viability (AZD5582 + Dasatinib; first compound 0.001581 µM)	relative viability (AZD5582 + Dasatinib; first compound 0.005 µM)	relative viability (AZD5582 + Dasatinib; first compound 0.01581 µM)	relative viability (AZD5582 + Dasatinib; first compound 0.05 µM)	relative viability (Temozolomide + Foretinib; first compound 0.2 µM)	relative viability (Temozolomide + Foretinib; first compound 0.6325 µM)	relative viability (Temozolomide + Foretinib; first compound 2 µM)	relative viability (Temozolomide + Foretinib; first compound 6.325 µM)	relative viability (Temozolomide + Foretinib; first compound 20 µM)	relative viability ([1]; first compound 0.2 µM)	relative viability ([1]; first compound 0.6325 µM)	relative viability ([1]; first compound 2 µM)	relative viability ([1]; first compound 6.325 µM)	relative viability ([1]; first compound 20 µM)
201T	1.05	1.07	0.977	1.25	0.557	0.577	0.541	0.589	0.901	1.2	1.14	1.08	1.03	1.02	1.09	1.08	0.834	0.986
A549	0.713	0.717	0.769	0.835					1.02	0.996	0.998	1.01	0.769	0.809	0.829	0.869	0.754	0.816
A-427	0.996	1.01	1.04	0.881	0.593	0.638	0.683	0.384	0.992	0.981	1.03	0.66	0.486	0.927	0.775	0.815	0.594	0.428
ABC-1	1.17	1.15	1.07	1.03	0.344	0.611		0.632	1.06	0.96	1.21	1.07	1.11	1.11	0.91	1.14	1.17	1.34
BEN	0.884	1.07	1.16	1.27	0.329	0.344	0.289	0.304	0.734	0.651	0.803	0.517	0.428	0.649	0.858	0.814	0.815	0.717
CAL-12T		0.713	1.24	1.01	0.261	0.333	0.363	0.349	1.13	1.09	1.15	1.05	1.13	0.93	0.744	0.587	0.695	0.733
COR-L23	0.73	0.801	0.799	0.875	0.432	0.647	0.477	0.53	1.12	1.06	1.01	0.961	0.911	0.925	0.701	0.669	0.503	0.614
COR-L 105	0.961	0.847	0.981	1.49	0.374	0.455	0.278	0.258	1.17	1.29	1.18	0.51	1.11	0.739	0.913	0.827	0.787	0.841
Calu-6	0.822	0.843	1.07	0.734					0.886	0.843	0.941	0.811	0.904	0.997	0.83	0.904	0.817	0.767
ChaGo-K-1					0.579	0.669	0.596	0.488	0.993	0.886	0.992	0.98	0.975	1.3	1.16	1.15	0.646	1.12
EBC-1	0.754	0.866	0.869	0.857					0.11	0.1	0.0982	0.111	0.117	0.167	0.2	0.229	0.208	0.194
EKVX	0.868	1.03	0.82	1.08	0.502	0.615		0.627	0.485	0.799	0.748	0.722	0.356	0.357	1.07	0.951	0.886	0.551
EMC-BAC-2	0.702	0.628	0.721	0.316	0.332	0.327	0.31	0.241	0.947	1.07	1.02	0.998	0.973	0.842	0.74	0.789	0.768	0.804
EPLC-272H	0.635	0.506	0.136	0.217	0.0652		0.305	0.0573	0.537	0.697	0.628	0.712	0.497	0.851	0.986	0.925	0.962	0.728
H3255	0.596	0.587	0.629	0.498	0.329	0.404	0.294	0.283		0.845	1.03	0.507	0.201		0.822	0.795	0.798	0.179
HARA	0.75	0.783	0.866	0.701	0.26	0.299	0.294	0.124	0.8	0.991	1.05	0.671	0.641	1.04	1.05	1.15	1.01	0.949
HCC-15	0.771	0.648	0.922	0.555	0.53	0.617	0.605	0.624	1.15	1.04	1.06	0.969	1.1	0.872	0.918	0.807	0.805	0.905
HCC-44	0.683	0.525	0.738	0.368										0.786	0.796	0.791	0.831	0.826
HCC-78	0.298	0.395	0.307	0.3	0.489	0.392	0.375	0.374	0.487	0.547	0.616	0.551	0.552	0.293	0.331	0.382	0.361	0.248
HCC-366	0.363	0.625	0.389	0.774	0.614	0.658		0.647	0.941	0.94	0.947	0.932	0.528	0.519	0.604	0.402	0.622	0.447

Cell Line	relative viability (AZD5582 + Alpelisib; first compound 0.001581 µM)	relative viability (AZD5582 + Alpelisib; first compound 0.005 µM)	relative viability (AZD5582 + Alpelisib; first compound 0.01581 µM)	relative viability (AZD5582 + Alpelisib; first compound 0.05 µM)	relative viability (AZD5582 + Dasatinib; first compound 0.001581 µM)	relative viability (AZD5582 + Dasatinib; first compound 0.005 µM)	relative viability (AZD5582 + Dasatinib; first compound 0.01581 µM)	relative viability (AZD5582 + Dasatinib; first compound 0.05 µM)	relative viability (Temozolomide + Foretinib; first compound 0.2 µM)	relative viability (Temozolomide + Foretinib; first compound 0.6325 µM)	relative viability (Temozolomide + Foretinib; first compound 2 µM)	relative viability (Temozolomide + Foretinib; first compound 6.325 µM)	relative viability (Temozolomide + Foretinib; first compound 20 µM)	relative viability ([1]; first compound 0.2 µM)	relative viability ([1]; first compound 0.6325 µM)	relative viability ([1]; first compound 2 µM)	relative viability ([1]; first compound 6.325 µM)	relative viability ([1]; first compound 20 µM)
HCC-827	0.898	1.02	0.985	1.04	0.342	0.218	0.289	0.411	1.14	1.01	0.994	0.894	0.153	0.992	0.932	0.932	0.902	0.172
HOP-62	0.997	0.934	0.87	1.25	0.657	0.797	0.506	0.689	1.33	1.08	1.14	1.1	1.04	1.12	0.991	1.05	0.801	0.965
IA-LM	0.686	0.71	0.844	0.686					1.35	1.23	1.19	1.03	1.34	1.27	0.719	1.09	0.706	0.962
LC-2-ad	0.911	0.98	0.834	1.11	0.629	0.774	0.461	0.531	0.838	1	0.971	0.898	0.765	0.455	0.443	0.51	0.443	0.437
LCLC-97TM1		0.269	0.226	0.23	0.748	0.91	0.768	0.825	0.919	0.906	0.86	0.979	0.934	0.344	0.237	0.342	0.33	0.375
LCLC-103H	0.97	1.23	0.471	0.64	0.411	0.475	0.403	0.152	0.834	0.787	0.895	0.73	0.713	1.03	1.04	1.08	1.05	1.05
LK-2	1.05	1.15	1.28	1.33	0.209	0.36	0.322	0.266	1.25	1.44	1.19	0.742	0.519	0.26	0.229	0.252	0.206	0.213
LOU-NH91	0.752	0.747	0.787	0.775	0.553	0.565	0.468	0.657	0.674	0.913	0.941	0.568	0.569	0.557	0.758	0.75	0.704	0.532
LU99A	0.554	0.594	0.499	0.611	0.443	0.608	0.537	0.483	0.874	0.851	0.832	0.784	0.73	0.592	0.601	0.6	0.557	0.515
LXF-289	1	1.04	0.988	1.07	0.228	0.236	0.154	0.13	0.978	0.998	0.985	0.964	0.908	0.825	0.82	0.761	0.791	0.76
NCI-H23	0.446	0.456	0.7	0.419	0.605	0.644	0.539	0.269	1.02	0.979	0.97	0.778	1.05	0.464	0.528	0.509	0.432	0.547
NCI-H522					0.935	0.876	0.846	1.45										
NCI-H1299	1.01	1.11	1.07	1.03					1.15	1.12	1.09	1.1	1.12	1.02	0.934	0.988	0.989	0.975
NCI-H1395	1.08	1.19		1.39	0.437	0.458	0.354	0.46	0.865	0.92	1.03	0.94	0.911					
NCI-H1623					0.514	0.582	0.559	0.433		0.854	0.827	0.822	0.519					
NCI-H1650					0.293	0.352	0.341	0.344	1.14	1.07	1.02	0.872	0.766	1.08	1.12	1.05	0.9	0.799
NCI-H1792	0.616	0.738	0.651	0.939	0.861	0.911	0.819	1.03						0.957	1.05	1	0.76	0.972
NCI-H1793	0.637	0.856	0.69	0.887	0.32	0.429	0.292	0.261		0.583	0.935	0.432	0.615					
NCI-H2342					0.316	0.315	0.27	0.319	0.793	1	1.04	1.02	0.886					
SW 900					0.482	0.424	0.393	0.653	0.924	1.2	0.955	0.732	1.25					
